Measurements reported in patent publication US20240216344A1, “THIAZOLIDINEDIONE ANALOGS FOR THE TREATMENT OF NAFLD AND METABOLIC DISEASES” (Cirius Therapeutics, Inc., priority 2019, published 2024).

System: patients with biopsy-confirmed NASH
Experiment: EMMINENCE post hoc multivariable models and canonical correlation of biomarker changes with histological changes
Set-up: species or system human
Excerpt: EMMINENCE was a phase 2 study examining the effects of three doses of MSDC-0602K versus placebo on liver histology in 392 patients with biopsy-confirmed nonalcoholic steatohepatitis (NASH). Patients provided written informed consent, and the protocol and consent form were approved by applicable institutional review boards. Baseline and 12-month biopsies were scored by a single expert hepatopathologist using the NASH Clinical Research Network (CRN) scoring criteria. Fasting blood samples for routine clinical chemistry as well as frozen samples for biomarker assays were analyzed centrally. In this post hoc analysis, multivariable models and partial canonical correlation were used to examine the associations between changes in biomarkers and changes in histological scores from baseline to 12 months in the 339 patients with paired biopsies. The trial was registered on ClinicalTrials.gov (NCT02784444).
Individual patient data from the 339 subjects with paired biopsy results in EMMINENCE were used to construct univariable and multivariable ANCOVA models for the 12-month change in each histological component (steatosis, inflammation, ballooning, and fibrosis). Candidate predictors included age, sex, type 2 diabetes (T2D) history, and baseline and 12-month changes in weight and laboratory parameters (liver injury markers, cholesterols, insulin sensitivity markers, ELF, CK-18). Non-linearity of the association between each continuous predictor and each outcome was examined by assessing the significance of the non-linear components of a restricted cubic spline transformation for each predictor. Appropriate transformations (quadratic, cubic, linear spline, log 2) were applied where deemed necessary based on review of the Akaike's Information Criterion and visual examination of plots of the predicted outcomes against each predictor. Due to issues with estimating the associations when severe multicollinearity exists between predictors in the model, ALT (collinear with AST) and waist circumference (collinear with weight) were excluded as candidate predictors. Multiple imputation with ten imputed datasets and assuming multivariate normality was used to handle missing values. The occurrence of missing data for any of the predictors was relatively low ([…] missing one or more predictor values). Rubin's algorithm was used for average estimates for predictors across the imputed datasets. Backwards selection was used for each outcome, with predictors remaining in a majority of the ten imputed datasets at the 0.05 significance level (>5) included in the final model. Each model was adjusted for the baseline value of the outcome. If a change from baseline predictor was included in the final model, then the baseline value for the parameter was also included in the final model.
A second multivariable model was fit for each outcome including the predictors found prognostic for any of the biopsy component changes. A multivariable ANCOVA model that included these predictors was run for NAS (the sum of ballooning, inflammation, and steatosis scores). Multivariable logistic regression models that included these predictors were also run for the binary outcomes of NASH resolution without worsening of fibrosis and fibrosis improvement without worsening of NASH.
A partial canonical correlation using individual patient data from EMMINENCE examined the correlation of changes in weight, AST, HbA1c, GGT, CK-18 (taken together) with changes in ballooning, inflammation, steatosis, and fibrosis (taken together) adjusted for those baseline variables prognostic of any of the histological feature changes in the multivariable models in the 306 subjects with complete observed data for the variables involved. This analysis results in “canonical variates” that are linear combinations of the original sets of variables weighted in such a way as to maximize the correlation between them. […]

[1] = effect size for a change of 20 in MSDC-0602K Dose, multivariable model with dose added
[2] = effect size for a change of 20 in MSDC-0602K Dose, univariable model

In the case of `COc1cccc(C(=O)COc2ccc(CC3SC(=O)NC3=O)cc2)c1` (stereo not drawn) [MSDC-0602K], the “Effect Size, change from baseline in steatosis, Multivariable Model” value (MSDC-0602K Dose, multivariable model with dose added, size of change not given) is reported as −0.03, the “Effect Size for a change of 20 in MSDC-0602K Dose; outcome change from baseline in fibrosis” value (Multivariable model) is reported as −0.01 and the “Effect Size for change of 20 in MSDC-0602K Dose; outcome NAS” value (Multivariable model) is reported as −0.03. The “Effect Size for a change of 20 in MSDC-0602K Dose; outcome change from baseline in fibrosis” value (Univariable Model) was −0.02, the “Effect Size, change from baseline in ballooning, Multivariable Model” value [1] was −0.02 and the “Effect Size, change from baseline in inflammation, Multivariable Model” value [1] was 0.01. The “Effect Size, change from baseline in ballooning, Univariable Model” value [2] was −0.01, the “Effect Size, change from baseline in inflammation, Univariable Model” value [2] was −0.01 and the “Effect Size, change from baseline in steatosis, Univariable Model” value [2] was −0.03.
